From US10131652B2, “Pyrimidinyloxy benzene derivatives as herbicides” (E. I. DU PONT DE NEMOURS AND COMPANY, priority 2014, dated 2018)
Like-named read-outs stand apart in the source and are kept apart here.

Tests used:
Type in all cases: in vivo
[1] = test system: waterhemp_RES2 (ALS & HPPD resistant common waterhemp, Amaranthus rudis); assay: Test F postemergence plant response; details: scale 0 to 100
Method: (§1) At the same time, plants from these crop and weed species and also waterhemp_RES1, (ALS & Triazine resistant common waterhemp, Amaranthus rudis), and waterhemp_RES2, (ALS & HPPD resistant common waterhemp, Amaranthus rudis) were treated with postemergence applications of test chemicals formulated in the same manner. Plants ranged in height from 2 to 18 cm for postemergence treatments (1- to 4-leaf stage).
(§2) Treated plants and controls were maintained in a greenhouse for 14 to 21 days, after which time all species were compared to controls and visually evaluated. Plant response ratings, summarized in Table F, are based on a scale of 0 to 100 where 0 is no effect and 100 is complete control. A dash (-) response means no test result.

[2] = test system: waterhemp_RES1 (ALS & Triazine resistant common waterhemp, Amaranthus rudis); assay: Test F postemergence plant response; details: scale 0 to 100
Method: as §1, §2

[3] = test system: chickweed (common chickweed, Stellaria media); assay: Test D postemergence plant response; details: for pest or weed control at 31 g/ha: 31 g ai/ha; for pest or weed control at 62 g/ha: 62 g ai/ha; for pest or weed control at 125 g/ha: 125 g ai/ha
Procedure, shortened: (§3)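 The formulated test chemicals were applied over the foliage of young potted plants (2 to 18 cm tall), which were then held under greenhouse conditions. Between days 13 and 15 each species was rated by eye versus controls, from 0 for no effect up to 100 for complete control.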

wild oat (Avena fatua) = assay: Test D postemergence plant response; details: for pest or weed control at 31 g/ha: 31 g ai/ha; for pest or weed control at 62 g/ha: 62 g ai/ha; for pest or weed control at 125 g/ha: 125 g ai/ha
Procedure, shortened: as §3

kochia (Kochia scoparia) = assay: Test D postemergence plant response; details: for pest or weed control at 31 g/ha: 31 g ai/ha; for pest or weed control at 62 g/ha: 62 g ai/ha; for pest or weed control at 125 g/ha: 125 g ai/ha
Procedure, shortened: as §3

[4] = test system: velvetleaf (Abutilon theophrasti); assay: Test B pre-/postemergence plant response; details: for pest or weed control at 1000 g/ha / pest or weed control at 125 g/ha / pest or weed control at 500 g/ha: Abutilon theophrasti, 240 h, read-out: Plant response rating, Velvetleaf; for pest or weed control at 1000 g/ha: 1000 g ai/ha; for pest or weed control at 500 g/ha: 500 g ai/ha
Procedure, shortened: (§4)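 Steps: plant seeds in loam soil–sand mix; spray soil preemergence, and in parallel spray 2–10 cm one- to two-leaf plants postemergence; hold ~10 days in greenhouse; visually rate injury against untreated controls (0 = no effect, 100 = complete control).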

[5] = test system: morningglory (Ipomoea spp.); assay: Test B pre-/postemergence plant response; details: for pest or weed control at 1000 g/ha / pest or weed control at 125 g/ha / pest or weed control at 500 g/ha: Ipomoea, 240 h, read-out: Plant response rating, Morningglory; for pest or weed control at 1000 g/ha: 1000 g ai/ha; for pest or weed control at 500 g/ha: 500 g ai/ha
Procedure, shortened: as §4

[6] = test system: large (Lg) crabgrass (Digitaria sanguinalis); assay: Test B pre-/postemergence plant response; details: for pest or weed control at 1000 g/ha / pest or weed control at 125 g/ha / pest or weed control at 500 g/ha: Digitaria sanguinalis, 240 h, read-out: Plant response rating, Crabgrass, Large; for pest or weed control at 1000 g/ha: 1000 g ai/ha; for pest or weed control at 500 g/ha: 500 g ai/ha
Procedure, shortened: as §4

[7] = Stellaria media, post-emergence, scale 0 to 100 (0 no effect, 100 complete control), read-out: Chickweed plant response rating
[8] = Stellaria media, post-emergence, scale 0 to 100, 0 no effect, 100 complete control, read-out: Plant response rating, Chickweed
[9] = Avena fatua, post-emergence, scale 0 to 100 (0 no effect, 100 complete control), read-out: Oat, Wild plant response rating
[10] = Avena fatua, post-emergence, scale 0 to 100, 0 no effect, 100 complete control, read-out: Plant response rating, Oat, Wild
[11] = Bassia scoparia, post-emergence, scale 0 to 100 (0 no effect, 100 complete control), read-out: Kochia plant response rating
[12] = Bassia scoparia, post-emergence, scale 0 to 100, 0 no effect, 100 complete control, read-out: Plant response rating, Kochia
[13] = post-emergence, Postemergence, 0 to 100 scale (0 no effect, 100 complete control)
[14] = pre-emergence, Preemergence, 0 to 100 scale (0 no effect, 100 complete control)
[15] = post-emergence, 125 g ai/ha, postemergence, 0 to 100 scale, 0 no effect, 100 complete control
[16] = post-emergence, postemergence, 0 to 100 scale, 0 no effect, 100 complete control
[17] = pre-emergence, Preemergence, 0 to 100 scale where 0 is no effect and 100 is complete control
[18] = Preemergence, 125 g ai/ha, 0 to 100 scale (0 no effect, 100 complete control)
[19] = pre-emergence, Preemergence, 125 g ai/ha, 0 to 100 scale where 0 is no effect and 100 is complete control

FC(F)c1cc(-c2ccccc2Oc2ncc(Cl)cn2)no1 [Compound 35, 5-chloro-2-[2-[5-(difluoromethyl)-3-isoxazolyl]phenoxy]pyrimidine]
Plant response rating, Waterhemp_RES2 ([1]; 8 g ai/ha Postemergence): 90
Plant response rating, Waterhemp_RES2 ([1]; 16 g ai/ha Postemergence): 90
Plant response rating, Waterhemp_RES2 ([1]; 31 g ai/ha Postemergence): 95
Plant response rating, Waterhemp_RES2 ([1]; 62 g ai/ha Postemergence): 100
Plant response rating, Waterhemp_RES2 ([1]; 125 g ai/ha Postemergence): 100
Plant response rating, Waterhemp_RES1 ([2]; 8 g ai/ha Postemergence): 90
Plant response rating, Waterhemp_RES1 ([2]; 16 g ai/ha Postemergence): 80
Plant response rating, Waterhemp_RES1 ([2]; 31 g ai/ha Postemergence): 90
Plant response rating, Waterhemp_RES1 ([2]; 62 g ai/ha Postemergence): 100
Plant response rating, Waterhemp_RES1 ([2]; 125 g ai/ha Postemergence): 100
Plant response rating (scale 0 to 100), Chickweed ([3]; 8 g ai/ha): 50
pest or weed control at 16 g/ha ([3]; Stellaria media, post-emergence, 16 g ai/ha, scale 0 to 100 (0 no effect, 100 complete control), read-out: Chickweed plant response rating): 85%
pest or weed control at 31 g/ha [3, 7]: 85%
pest or weed control at 62 g/ha [3, 8]: 100%
Plant response rating (scale 0 to 100), Oat, Wild (wild oat (Avena fatua); 8 g ai/ha): 5
pest or weed control at 16 g/ha (wild oat (Avena fatua); Avena fatua, post-emergence, 16 g ai/ha, scale 0 to 100 (0 no effect, 100 complete control), read-out: Oat, Wild plant response rating): 10%
pest or weed control at 31 g/ha (wild oat (Avena fatua); [9]): 40%
pest or weed control at 62 g/ha (wild oat (Avena fatua); [10]): 45%
Plant response rating (scale 0 to 100), Kochia (kochia (Kochia scoparia); 8 g ai/ha): 95
pest or weed control at 16 g/ha (kochia (Kochia scoparia); Bassia scoparia, post-emergence, 16 g ai/ha, scale 0 to 100 (0 no effect, 100 complete control), read-out: Kochia plant response rating): 100%
pest or weed control at 31 g/ha (kochia (Kochia scoparia); [11]): 100%
pest or weed control at 62 g/ha (kochia (Kochia scoparia); [12]): 100%
pest or weed control at 1000 g/ha [4, 13]: 100%
pest or weed control at 1000 g/ha [4, 14]: 100%
pest or weed control at 1000 g/ha [5, 13]: 100%
pest or weed control at 1000 g/ha [5, 14]: 90%
pest or weed control at 1000 g/ha [6, 13]: 100%
pest or weed control at 1000 g/ha [6, 14]: 100%

FC(F)(F)c1cc(-c2ccccc2Oc2ncc(Cl)cn2)no1 [Compound 200, 5-chloro-2-[2-[5-(trifluoromethyl)-3-isoxazolyl]phenoxy]pyrimidine]
Plant response rating, Waterhemp_RES2 ([1]; 8 g ai/ha Postemergence): 75
Plant response rating, Waterhemp_RES2 ([1]; 16 g ai/ha Postemergence): 95
Plant response rating, Waterhemp_RES2 ([1]; 31 g ai/ha Postemergence): 95
Plant response rating, Waterhemp_RES2 ([1]; 62 g ai/ha Postemergence): 98
Plant response rating, Waterhemp_RES2 ([1]; 125 g ai/ha Postemergence): 98
Plant response rating, Waterhemp_RES1 ([2]; 8 g ai/ha Postemergence): 70
Plant response rating, Waterhemp_RES1 ([2]; 16 g ai/ha Postemergence): 75
Plant response rating, Waterhemp_RES1 ([2]; 31 g ai/ha Postemergence): 90
Plant response rating, Waterhemp_RES1 ([2]; 62 g ai/ha Postemergence): 95
Plant response rating, Waterhemp_RES1 ([2]; 125 g ai/ha Postemergence): 98
Plant response rating (scale 0 to 100), Chickweed ([3]; 16 g ai/ha): 60
pest or weed control at 31 g/ha [3, 7]: 95%
pest or weed control at 62 g/ha [3, 8]: 100%
pest or weed control at 125 g/ha [3, 8]: 100%
Plant response rating (scale 0 to 100), Oat, Wild (wild oat (Avena fatua); 16 g ai/ha): 20
pest or weed control at 31 g/ha (wild oat (Avena fatua); [9]): 30%
pest or weed control at 62 g/ha (wild oat (Avena fatua); Avena fatua, post-emergence, scale 0 to 100, 0 no effect, 100 complete control, read-out: Oat, Wild plant response rating): 30%
pest or weed control at 125 g/ha (wild oat (Avena fatua); [10]): 55%
Plant response rating (scale 0 to 100), Kochia (kochia (Kochia scoparia); 16 g ai/ha): 95
pest or weed control at 31 g/ha (kochia (Kochia scoparia); [11]): 100%
pest or weed control at 62 g/ha (kochia (Kochia scoparia); [12]): 100%
pest or weed control at 125 g/ha (kochia (Kochia scoparia); [12]): 100%
pest or weed control at 125 g/ha [4, 15]: 100%
pest or weed control at 500 g/ha [4, 16]: 100%
pest or weed control at 500 g/ha [4, 17]: 90%
Velvetleaf plant response rating [4, 18]: 80
pest or weed control at 125 g/ha [5, 15]: 90%
pest or weed control at 500 g/ha [5, 16]: 100%
pest or weed control at 500 g/ha [5, 17]: 100%
Morningglory plant response rating [5, 18]: 20
pest or weed control at 125 g/ha [6, 15]: 100%
pest or weed control at 500 g/ha [6, 16]: 100%
pest or weed control at 500 g/ha [6, 17]: 100%
Crabgrass, Large plant response rating [6, 18]: 100

FC(F)c1cc(-c2ccccc2Oc2ncc(Br)cn2)no1 [Compound 62, 5-bromo-2-[2-[5-(difluoromethyl)-3-isoxazolyl]phenoxy]pyrimidine]
Plant response rating, Waterhemp_RES2 ([1]; 8 g ai/ha Postemergence): 80
Plant response rating, Waterhemp_RES2 ([1]; 16 g ai/ha Postemergence): 80
Plant response rating, Waterhemp_RES2 ([1]; 31 g ai/ha Postemergence): 100
Plant response rating, Waterhemp_RES2 ([1]; 62 g ai/ha Postemergence): 100
Plant response rating, Waterhemp_RES2 ([1]; 125 g ai/ha Postemergence): 100
Plant response rating, Waterhemp_RES1 ([2]; 8 g ai/ha Postemergence): 80
Plant response rating, Waterhemp_RES1 ([2]; 16 g ai/ha Postemergence): 85
Plant response rating, Waterhemp_RES1 ([2]; 31 g ai/ha Postemergence): 100
Plant response rating, Waterhemp_RES1 ([2]; 62 g ai/ha Postemergence): 100
Plant response rating, Waterhemp_RES1 ([2]; 125 g ai/ha Postemergence): 100
pest or weed control at 31 g/ha [3, 7]: 70%
pest or weed control at 62 g/ha [3, 8]: 95%
pest or weed control at 125 g/ha [3, 8]: 98%
pest or weed control at 250 g/ha ([3]; Stellaria media, post-emergence, 250 g ai/ha, scale 0 to 100, 0 no effect, 100 complete control, read-out: Plant response rating, Chickweed): 100%
pest or weed control at 31 g/ha (wild oat (Avena fatua); [9]): 30%
pest or weed control at 62 g/ha (wild oat (Avena fatua); [10]): 40%
pest or weed control at 125 g/ha (wild oat (Avena fatua); [10]): 50%
pest or weed control at 250 g/ha (wild oat (Avena fatua); Avena fatua, post-emergence, 250 g ai/ha, scale 0 to 100, 0 no effect, 100 complete control, read-out: Plant response rating, Oat, Wild): 60%
pest or weed control at 31 g/ha (kochia (Kochia scoparia); [11]): 98%
pest or weed control at 62 g/ha (kochia (Kochia scoparia); [12]): 100%
pest or weed control at 125 g/ha (kochia (Kochia scoparia); [12]): 100%
pest or weed control at 250 g/ha (kochia (Kochia scoparia); Bassia scoparia, post-emergence, 250 g ai/ha, scale 0 to 100, 0 no effect, 100 complete control, read-out: Plant response rating, Kochia): 100%
pest or weed control at 125 g/ha [4, 15]: 100%
pest or weed control at 500 g/ha [4, 13]: 100%
pest or weed control at 125 g/ha [4, 19]: 90%
pest or weed control at 500 g/ha [4, 17]: 100%
pest or weed control at 125 g/ha [5, 15]: 90%
pest or weed control at 500 g/ha [5, 13]: 100%
pest or weed control at 125 g/ha [5, 19]: 60%
pest or weed control at 500 g/ha [5, 17]: 90%
pest or weed control at 125 g/ha [6, 15]: 70%
pest or weed control at 500 g/ha [6, 13]: 90%
pest or weed control at 125 g/ha [6, 19]: 100%
pest or weed control at 500 g/ha [6, 17]: 100%
